Experimental findings from patent US6743923B2, “Antirheumatic agent” (Shionogi & Co., Ltd., priority 1997, dated 2004) are described below.

In test [1] the test system is IL-6 level in articular tissue. Put plainly: Rat adjuvant arthritis: repressive effect on the IL-6 level in articular tissue. The class given is in vivo. Conditions: oral, 18 days after adjuvant injection, non-injected leg. The method, then:
Another adjuvant arthritis model animal was prepared apart from the above experiments, and a compound was orally administered to the animal for 18 days after the adjuvant injection. The non-injected leg was then amputated under anesthetization, epidermis of the amputated leg was ablated, the leg was frozen in liquid nitrogen, and the arthrosis part was crushed by a crushing machine. To a measured quantity of the crushed arthrosis, 3 mL of ice-cold PBS was added and homogenized with a homogenizer under ice-cooling. The resultant homogenate was centrifuged at 4° C. for 20 minutes at 3,000 rpm to collect the supernatant, which was then passed through a 0.45 μm filter to prepare a sample. The sample and MH60 BSF2 cells (derived from mouse, require IL-6) were incubated on a 96-well plate under defined conditions, and the absorbance was measured at two wave lengths of 540 nm and 690 nm. The IL-6 level in the sample was calculated based on the standard curve prepared using a recombinant human IL-6.

The test system of another test is NZB/KN mouse. Put plainly: Inhibitory effect against bone destruction in spontaneous rheumatic model NZB/KN mouse. It counts as in vivo. To be noted: male NZB/KN mice, oral, five times a week. The source says:
To male NZB/KN mice, in which a human RA-like pathology arises spontaneously due to their immunologically abnormal background, was orally administered Compound Ia once in a day (five times a week) for six months beginning at two-month-age. The mice which reached six month old (some were eight month old) were full-length radiographed under anesthetization and predetermined conditions using a soft X-ray generator (OM-55, Omic). According to the method of Nakamura, et. al. [Arthritis. Rheum., 34, 171-179 (1991)], the number of the lesions observed in the bones and articular regions in the whole body were counted on the basis of the soft X-ray radiographed films, and the total number of the observed lesions were defined as the number of the bone disorders in the animal. The results were shown using mean±standard deviation, and significance test was performed according to Dunnett-t test (*p<0.05, ** p<0.01: vs. vehicle group).

Some results are limits rather than exact numbers.

As to `CCN1CC/C(=C\c2cc(C(C)(C)C)c(O)c(C(C)(C)C)c2)S1(=O)=O` [Compound Ia, (E)-2-Ethyl-5-(3,5-di-tert-butyl-4-hydroxy)benzylidene-1,2-isothiazolidine-1,1-dioxide], the “dose with dose-dependent and significant inhibitory effect against the increase of the IL-6 level in the articular tissue” value in test [1] is listed as not below 3 mg/kg/day. In addition, the “dose with significant improving effect on the bone-articular lesions” value in the test with NZB/KN mouse is given as not below 10 mg/kg/day.
